In brackets after ≈: the same amount, converted by molar mass. Like-named read-outs stand apart in the source and are kept apart here.
Test: Solubility at 25° C. in organic solvents (Example 15)
Type: physicochemical
Conditions: organic solvent or mixture
[1] = chlorobenzene, clorobenzene, read-out: Solubility in clorobenzene
[2] = CHCl3, read-out: Solubility in CHCl3
[3] = DMF, read-out: Solubility in DMF
[4] = THF, read-out: Solubility in THF

solubility [1] [µg/mL] | solubility [2] [µg/mL] | solubility [3] [µg/mL] | solubility [4] [µg/mL] | Compound
> 10000 | > 10000 | > 10000 | > 10000 | CCCCCCCCCCCCc1ccc2c(c1)N=c1c(c3c(n1C(=O)OC(C)(C)C)=Nc1cc(CCCCCCCCCCCC)ccc1S3)S2 [Compound 1d]
< 1000 | < 1000 | < 1000 | < 1000 | c1ccc2c(c1)N=c1[nH]c3c(c1S2)Sc1ccccc1N=3 [Compound 2a, reference compound]
5000 to 10000 (≈ 12.3 to 24.5 mM) | 5000 to 10000 (≈ 12.3 to 24.5 mM) | 1000 to 5000 (≈ 2.45 to 12.3 mM) | 1000 to 5000 (≈ 2.45 to 12.3 mM) | CC(C)(C)OC(=O)n1c2c(c3c1=Nc1ccccc1S3)Sc1ccccc1N=2 [Compound 1a]
> 10000 | > 10000 | < 1000 | > 10000 | CCCCCCCc1ccc2c(c1)N=c1c(c3c(n1C(=O)OC(C)(C)C)=Nc1cc(CCCCCCC)ccc1S3)S2 [Compound 1c]

Source: US10079346B2, “Heteroaromatic compounds for organic electronics” (BASF SE, priority 2014, dated 2018)
